Data on three molecules can be found in ChEMBL document CHEMBL5576135, “Discovery of Indolo[3,2-c]isoquinoline Derivatives as Novel Top1/2 Dual Inhibitors with Orally Efficacious Antitumor Activity and Low Toxicity” (J Med Chem, 2024).

Active and inactive are the calls of the source. No cut-off for these calls is given here.

Broadly, the IC50 is the concentration that inhibits the measured activity by half. What is called inhibition is the share of the control response that was lost under treatment. One may read the LD50 as the dose expected to kill half of the subjects tested. In general, T/C refers to the result in the treated group divided by that in the control group, in per cent.

One data set deals with MCF7. Kind of data set: Antiproliferative activity against human MCF7 cells assessed as inhibition of cell growth incubated for 96 hrs by MTT based ELISA. Format: functional. Conditions: MCF7, 96 h. On the technique in general: An ELISA detects its analyte on a solid surface through an enzyme-linked reagent.
The next data set deals with MDA-MB-231. Kind of data set: Antiproliferative activity against human MDA-MB-231 cells assessed as inhibition of cell growth incubated for 96 hrs by MTT based ELISA. Type of data set: functional. The following applies: MDA-MB-231, 96 h.
The subject of another data set is PC-3. In words: Antiproliferative activity against human PC-3 cells assessed as inhibition of cell growth incubated for 96 hrs by MTT based ELISA. Type of data set: functional. The following applies: PC-3, 96 h.
For data set [1], the system named is HCT-116. In words: Antiproliferative activity against human HCT-116 cells assessed as inhibition of cell growth incubated for 96 hrs by MTT based ELISA. Format: functional. The following applies: HCT-116, 96 h.
A further data set relates to NCI-H2228. In words: Antiproliferative activity against human NCI-H2228 cells assessed as inhibition of cell growth incubated for 96 hrs by MTT based ELISA. Conditions: NCI-H2228, 96 h. Type of data set: functional.
The test system of another data set is Huh-7. In words: Antiproliferative activity against human Huh-7 cells assessed as inhibition of cell growth incubated for 96 hrs by MTT based ELISA. Type of data set: functional. Conditions: Huh-7, 96 h.
The subject of a further data set is NCI-H1975. Kind of data set: Antiproliferative activity against human NCI-H1975 cells assessed as inhibition of cell growth incubated for 96 hrs by MTT based ELISA. The following applies: NCI-H1975, 96 h. Type of data set: functional.
The test system of the next data set is NCI-H1650. Kind of data set: Antiproliferative activity against human NCI-H1650 cells assessed as inhibition of cell growth incubated for 96 hrs by MTT based ELISA. Format: functional. Conditions: NCI-H1650, 96 h.
For another data set, the system named is A549. In words: Antiproliferative activity against human A549 cells assessed as inhibition of cell growth incubated for 96 hrs by MTT based ELISA. Type of data set: functional. The following applies: A549, 96 h.
Another data set concerns PC-9. Kind of data set: Antiproliferative activity against human PC-9 cells assessed as inhibition of cell growth incubated for 96 hrs by MTT based ELISA. Format: functional. The following applies: PC-9, 96 h.
Data set [2] relates to NCI-H446. In words: Antiproliferative activity against human NCI-H446 cells assessed as inhibition of cell growth incubated for 96 hrs by MTT based ELISA. Type of data set: functional. Conditions: NCI-H446, 96 h.
For a further data set, the system named is DU-145. Kind of data set: Antiproliferative activity against human DU-145 cells assessed as inhibition of cell growth incubated for 96 hrs by MTT based ELISA. Format: functional. The following applies: DU-145, 96 h.
Data set [3] is described as follows: Antiproliferative activity against human BEAS-2B cells assessed as inhibition of cell growth incubated for 96 hrs by MTT based ELISA. Type of data set: toxicity.
The test system of data set [4] is NCI-H446. In words: Induction of DNA damage in human NCI-H446 cells assessed as tail DNA at 8 uM incubated for 48 hrs by comet assay relative to control. Format: functional.
For data set [5], the system named is NCI-H446. Kind of data set: Induction of DNA damage in human NCI-H446 cells assessed as increase in intracellular gamma-H2AX level at 8 uM incubated for 48 hrs by Western blotting analysis. Type of data set: functional, cell-based. (In general: Immunoblotting shows a protein as a band on a membrane.)
In data set [6] the test system is NCI-H446. Kind of data set: Induction of DNA damage in human NCI-H446 cells assessed as increase in intracellular ROS level at 8 uM incubated for 6 hrs by DCFHDA probe based fluorescence microscopic analysis. Type of data set: functional, cell-based.
Data set [7] relates to NCI-H446. Kind of data set: Induction of cell cycle arrest in human NCI-H446 cells assessed as accumulation of cells at S phase at 8 uM incubated for 48 hrs by propidium iodide/RNase A staining based flow cytometry. Type of data set: functional.
The test system of data set [8] is NCI-H446. In words: Induction of cell cycle arrest in human NCI-H446 cells assessed as accumulation of cells at G2/M phase at 8 uM incubated for 48 hrs by propidium iodide/RNase A staining based flow cytometry. Type of data set: functional.
The subject of data set [9] is NCI-H446. In words: Induction of apoptosis in human NCI-H446 cells at 8 uM incubated for 48 hrs by Annexin V-FITC/PI staining based flow cytometry relative to control. Format: functional. Background: A flow cytometer gives signals particle by particle.
The subject of data set [10] is NCI-H446. Kind of data set: Inhibition of colony formation in human NCI-H446 cells at 1 uM incubated for 24 hrs by crystal violet staining based analysis relative to control. Type of data set: functional.
Data set [11] deals with NCI-H446. In words: Inhibition of colony formation in human NCI-H446 cells at 2 uM incubated for 24 hrs by crystal violet staining based analysis relative to control. Type of data set: functional.
In data set [12] the test system is NCI-H446. In words: Inhibition of cell migration in human NCI-H446 cells at 4 uM incubated for 48 hrs by phase-contrast microscopic analysis relative to control. Format: functional.
The nature of data set [13]: Toxicity in Kunming mouse assessed as reduction in body weight at 30 mg/kg,ip administrated for 3 days. Format: organism-based. Conditions: in vivo, 72 h, time 3 day. Set-up: scale not given: the % may be the effect or the level left.
For data set [14], the system named is HCT-116. In words: Antitumor activity against human HCT-116 cells xenografted with BALB/c mouse assessed as tumor growth inhibition at 20 mg/kg,ip administrated twice weekly for 21 days relative to control. Format: functional, organism-based. The following applies: time 21.0 day.
Data set [15] deals with HCT-116. Kind of data set: Antitumor activity against human HCT-116 cells xenografted with BALB/c mouse assessed as tumor growth inhibition by measuring T/C ratio at 20 mg/kg,ip administrated twice weekly for 21 days. Format: functional, organism-based. The following applies: time 21.0 day.
A short description of data set [16]: Toxicity in Kunming mouse assessed as lethal dose at po administration for 2 weeks. Type of data set: organism-based. The following applies: in vivo.
Data set [17] is described as follows: Toxicity in Kunming mouse assessed as reduction in body weight at 100 mg/kg,po administrated for 3 days. Type of data set: organism-based. Set-up: scale not given: the % may be the effect or the level left. The following applies: in vivo, 72 h, time 3 day.
The test system of data set [18] is NCI-H446. Kind of data set: Antitumor activity against human NCI-H446 cells xenografted with BALB/c mouse assessed as tumor growth inhibition at 4 mg/kg,ip administrated 3 times weekly for 21 days in presence of cisplatin relative to control. Type of data set: functional. Conditions: NCI-H446, 504 h, time 21 day, read-out: TGI.
Data set [19] relates to NCI-H446. In words: Antitumor activity against human NCI-H446 cells xenografted with BALB/c mouse assessed as tumor growth inhibition by measuring T/C ratio at 4 mg/kg,ip administrated 3 times weekly for 21 days in presence of cisplatin. The following applies: time 21 day. Format: functional.

Consider `CCc1c2c(nc3ccc(OC(=O)N4CCC(N5CCCCC5)CC4)cc13)-c1cc3c(c(=O)n1C2)COC(=O)[C@]3(O)CC` [IRINOTECAN], for which the IC50 is 4590 nM with MCF7; more than 10000 nM with MDA-MB-231; 3670 nM with PC-3; 3160 nM in the data set with HCT-116 [1]; 3430 nM with NCI-H2228; more than 10000 nM in the data set on Huh-7. The IC50 in the data set on NCI-H1975 is 3410 nM; in the data set on NCI-H1650, 6800 nM; in the data set on A549, more than 10000 nM; in the data set on PC-9, 3840 nM; in the data set on NCI-H446 [2], 780 nM; in the data set on DU-145 it was 960 nM. In addition, in data set [3], the IC50 at 96 h is more than 10000 nM. Also, the Activity in the data set with NCI-H446 [4] is reported as 27.8%; in the data set on NCI-H446 [7] it was 59.3%; with NCI-H446 [8], 59.3%; in the data set on NCI-H446 [9], 5.3%; in [13], more than 10%. Besides, the result in the data set on NCI-H446 [5] and in the data set with NCI-H446 [6] was Active. Moreover, the inhibition at 1 µM in the data set with NCI-H446 [10] came to 85.8%. The molecule further returned an inhibition at 2 µM in the data set on NCI-H446 [11] of 33.7%. For the same molecule, in the data set with NCI-H446 [12], at 4 µM the inhibition was 54.5%. The inhibition result in the data set on HCT-116 [14] and with HCT-116 [15] was “Active” each time.

As for `CC[C@@]1(O)C(=O)OCc2c1cc1n(c2=O)Cc2cc3c(CN(C)C)c(O)ccc3nc2-1` [TOPOTECAN], the LD50 at 336 h in data set [16] was less than 1000 mg/kg. Moreover, the Activity in data set [17] is reported as more than 10%.

Regarding `COc1cc([C@@H]2c3cc4c(cc3[C@@H](O[C@@H]3O[C@@H]5CO[C@@H](C)O[C@H]5[C@H](O)[C@H]3O)[C@H]3COC(=O)[C@H]23)OCO4)cc(OC)c1O` [ETOPOSIDE], the IC50 in the data set with MCF7 came to 1180 nM; with MDA-MB-231, 2870 nM; with PC-3 it was 1590 nM; with HCT-116 [1] it was 2000 nM; in the data set on NCI-H2228, 2510 nM; with Huh-7 it was 3800 nM. Moreover, the IC50 in the data set with NCI-H1975 was 340 nM; in the data set on NCI-H1650 it was 2650 nM; in the data set with A549 it was more than 10000 nM; in the data set with PC-9 it was 2220 nM; in the data set on NCI-H446 [2] it was 240 nM; in the data set with DU-145, 1650 nM. In addition, the IC50 at 96 h in [3] was more than 10000 nM. Also, in data set [13], the Activity is more than 10%. Also, in the data set with NCI-H446 [18], the inhibition in vivo at 4 mg/kg is 27.7%. The T/C in the data set on NCI-H446 [19] was 68.2%.
